Structures are written as SMILES. Converted amounts (≈) assume the structure as drawn. Bounds are passed on as bounds.

The first data set in a line: Aqueous kinetic solubility from a solution of 10 mM DMSO in phosphate buffered saline (PBS) at pH 7.4. As to conditions: PBS pH 7.4, 25° C., target concentration 250 μM, 2.5% DMSO, UV quantification at 215 nm, read-out: Kinetic sol. PBS pH 7.4. The class given is physicochemical. The method, then: Aqueous kinetic solubility of derivative compounds of the benzoic acid starting from a solution of 10 mM DMSO in phosphate buffered saline (PBS) at pH 7.4
Aliquots of 30 μL of stock solution of the test compound in 10 mM DMSO were incubated in phosphate buffered saline (PBS) at pH 7.4 at 25° C. for 24 hours. After centrifugation, the compound dissolved in the supernatant was quantified by […].
The target concentration was 250 μM with a final concentration of 2.5% DMSO. Aqueous kinetic solubility was determined by UV quantification at 215 nm. The kinetic solubility was then calculated by dividing the peak area of the supernatant by the peak area of the reference and multiplying by the reference concentration (μM) and the dilution factor (1.25).
Turning to `CN(C)S(=O)(=O)c1cc(C(=O)O)ccc1NCCCC(F)(F)F` [Compound 7], the solubility kinetic at 24 h came to 245 µM (≈ 86.8 µg/mL).
The same measure, in the same setting: the same measure for `O=C(O)c1ccc(NCCCCCCCC(F)(F)F)c(S(=O)(=O)NC2CCCC2)c1` [Compound 12]: 223 µM (≈ 100 µg/mL).
Still for that read-out and setting: as for `CN(C)S(=O)(=O)c1cc(C(=O)O)c(Cl)cc1NCCCCCCCC(F)(F)F` [Compound 16], the figure is 241 µM (≈ 107 µg/mL).
`CCCCCCNc1ccc(C(=O)O)cc1S(N)(=O)=O` [Compound 2]: the solubility kinetic at 24 h is recorded as 238 µM (≈ 71.5 µg/mL).
The same measure, in the same setting: the same measure for `COCCCCCCNc1ccc(C(=O)O)cc1S(=O)(=O)N(C)C` [Compound 11]: greater than 250 µM; for `CNS(=O)(=O)c1cc(C(=O)O)ccc1NCCCCCCCC(F)(F)F` [Compound 18]: 242 µM (≈ 95.9 µg/mL).
In the case of `CN(C)S(=O)(=O)c1cc(C(=O)O)ccc1NCCCCCCCC(F)(F)F` [Compound 1, 3-(dimethylsulfamoyl)-4-(8,8,8-trifluorooctylamino)benzoic acid], the solubility kinetic at 24 h is listed as greater than 250 µM.
On the same count and under the same terms, as for `O=C(O)c1ccc(NCCCCCCCC(F)(F)F)c(S(=O)(=O)N2CCOCC2)c1` [Compound 13], the figure is 244 µM (≈ 110 µg/mL).
The same measure, in the same setting: as for `CCCCCCNc1ccc(C(=O)O)cc1S(=O)(=O)NC` [Compound 4], the figure is 247 µM (≈ 77.7 µg/mL).
Same read-out and setting: as for `COCCNc1ccc(C(=O)O)cc1S(=O)(=O)N(C)C` [Compound 9], the figure is 237 µM (≈ 71.7 µg/mL); as for `CCCCCCNc1ccc(C(=O)O)cc1S(=O)(=O)N(C)C` [Compound 5], 243 µM (≈ 79.8 µg/mL).
As for `CCCCCCCCNc1ccc(C(=O)O)cc1S(N)(=O)=O` [Compound 3], the solubility kinetic at 24 h is greater than 250 µM.
For `CN(C)S(=O)(=O)c1cc(C(=O)O)ccc1NCCC(C)(C)C` [Compound 6], the solubility kinetic at 24 h is on record as greater than 250 µM.
The same measure, in the same setting: as for `COCCCCNc1ccc(C(=O)O)cc1S(=O)(=O)N(C)C` [Compound 10], the figure is 247 µM (≈ 81.6 µg/mL); as for `O=C(O)c1ccc(NCCCCCCCC(F)(F)F)c(S(=O)(=O)NC2CCOCC2)c1` [Compound 14], 244 µM (≈ 114 µg/mL); as for `CN(C)S(=O)(=O)c1cc(C(=O)O)ccc1NCCCCCC(F)(F)F` [Compound 8], 249 µM (≈ 95.2 µg/mL).
On the same count and under the same terms, as for `COc1cc(NCCCCCCCC(F)(F)F)c(S(=O)(=O)N(C)C)cc1C(=O)O` [Compound 20], the figure is 188 µM (≈ 82.8 µg/mL).

The same data set, now with this note: aqueous buffer, PBS pH 7.4, 25° C., target concentration 250 μM, 2.5% DMSO, UV quantification at 215 nm, read-out: Kinetic sol. PBS pH 7.4.
As for `CN(C)S(=O)(=O)c1cc(C(=O)O)ccc1N1CCN(CCCCC(F)(F)F)CC1` [Compound 15], the solubility kinetic at 24 h was greater than 250 µM.
On the same count and under the same terms, as for `NS(=O)(=O)c1cc(C(=O)O)c(O)cc1NCCCCCCCC(F)(F)F` [Compound 19], the figure is greater than 250 µM.
Same read-out and setting: as for `C=CCCCCCNc1ccc(C(=O)O)cc1S(=O)(=O)N(C)C` [Compound 17], the figure is greater than 250 µM.
